The record followed here is ChEMBL document CHEMBL1124182, “Design, synthesis, and properties of (4S)-7-(4-amino-2-substituted-pyrrolidin-1-yl)quinolone-3-carboxylic acids” (J Med Chem, 1988).

In brackets after ≈: the same amount, converted by molar mass.

In general, MIC refers to the least concentration at which growth counts as inhibited. What is called solubility is the dissolved amount per volume that the medium holds.

The subject of one data set is Acinetobacter. Description: In vitro Minimum inhibitory concentration against Acinetobacter CMX 669. In kind it is functional. The conditions noted are these: Acinetobacter; read-out: MIC.
For the compound `N[C@H]1C[C@@H](CO)N(c2cc3c(cc2F)c(=O)c(C(=O)O)cn3-c2ccc(F)cc2F)C1`, the MIC worked out at 25 µg/mL (≈ 57.7 µM).
Same read-out and setting: the value for `N[C@H]1CC(CF)N(c2nc3c(cc2F)c(=O)c(C(=O)O)cn3-c2ccc(F)cc2F)C1` (stereo not given in full) was 0.39 µg/mL (≈ 0.894 µM); that for `O=C(O)c1cn(-c2ccc(F)cc2F)c2nc(N3C[C@@H]4C[C@H]3CN4)c(F)cc2c1=O` was 0.39 µg/mL (≈ 0.937 µM).

Another data set relates to Escherichia coli. As to the kind of experiment: In vitro Minimum inhibitory concentration against Escherichia coli Juhl. In kind it is functional.
Conditions: not given
As to `N[C@H]1C[C@@H](CO)N(c2cc3c(cc2F)c(=O)c(C(=O)O)cn3-c2ccc(F)cc2F)C1`, the minimum inhibitory concentration (MIC) came out at 3.1 µg/mL (≈ 7.15 µM).
`N[C@H]1CC(CF)N(c2nc3c(cc2F)c(=O)c(C(=O)O)cn3-c2ccc(F)cc2F)C1` (stereo not given in full) gave an MIC of 0.1 µg/mL (≈ 0.229 µM).
Consider `O=C(O)c1cn(-c2ccc(F)cc2F)c2nc(N3C[C@@H]4C[C@H]3CN4)c(F)cc2c1=O`, for which the MIC came out at 0.05 µg/mL (≈ 0.12 µM).

Another data set relates to Escherichia coli. Description: Supercoiling inhibition assay using purified DNA gyrase isolated from Escherichia coli H560. In kind it is functional. To be noted: read-out: I50.
Consider `N[C@H]1C[C@@H](CO)N(c2cc3c(cc2F)c(=O)c(C(=O)O)cn3-c2ccc(F)cc2F)C1`, for which the IC50 was found to be 10 µg/mL (≈ 23.1 µM).
On to `N[C@H]1CC(CF)N(c2nc3c(cc2F)c(=O)c(C(=O)O)cn3-c2ccc(F)cc2F)C1` (stereo not given in full), for which the IC50 is 0.75 µg/mL (≈ 1.72 µM).

In a further data set the test system is Klebsiella pneumoniae. As to the kind of experiment: In vitro Minimum inhibitory concentration against Klebsiella pneumoniae 8045.
Conditions: not given
In kind it is functional.
In turn, `N[C@H]1C[C@@H](CO)N(c2cc3c(cc2F)c(=O)c(C(=O)O)cn3-c2ccc(F)cc2F)C1` showed an MIC of 3.1 µg/mL (≈ 7.15 µM).
Consider `N[C@H]1CC(CF)N(c2nc3c(cc2F)c(=O)c(C(=O)O)cn3-c2ccc(F)cc2F)C1` (stereo not given in full), for which the MIC was 0.1 µg/mL (≈ 0.229 µM).
In turn, `O=C(O)c1cn(-c2ccc(F)cc2F)c2nc(N3C[C@@H]4C[C@H]3CN4)c(F)cc2c1=O` showed an MIC of 0.05 µg/mL (≈ 0.12 µM).

In another data set the test system is Pseudomonas aeruginosa. As to the kind of experiment: In vitro Minimum inhibitory concentration against Pseudomonas aeruginosa 5007.
Conditions: not given
In kind it is functional.
Consider `N[C@H]1C[C@@H](CO)N(c2cc3c(cc2F)c(=O)c(C(=O)O)cn3-c2ccc(F)cc2F)C1`, for which the MIC was found to be 12.5 µg/mL (≈ 28.8 µM).
Take `N[C@H]1CC(CF)N(c2nc3c(cc2F)c(=O)c(C(=O)O)cn3-c2ccc(F)cc2F)C1` (stereo not given in full): it took 0.78 µg/mL (≈ 1.79 µM) to inhibit growth (MIC).
Same read-out and setting: the value for `O=C(O)c1cn(-c2ccc(F)cc2F)c2nc(N3C[C@@H]4C[C@H]3CN4)c(F)cc2c1=O` was 0.39 µg/mL (≈ 0.937 µM).

For the next data set, the system named is Pseudomonas aeruginosa. As to the kind of experiment: In vitro Minimum inhibitory concentration against Pseudomonas aeruginosa K799/WT.
Conditions: not given
In kind it is functional.
In turn, `N[C@H]1C[C@@H](CO)N(c2cc3c(cc2F)c(=O)c(C(=O)O)cn3-c2ccc(F)cc2F)C1` had a minimal inhibitory concentration (MIC) of 12.5 µg/mL (≈ 28.8 µM).
`N[C@H]1CC(CF)N(c2nc3c(cc2F)c(=O)c(C(=O)O)cn3-c2ccc(F)cc2F)C1` (stereo not given in full): the MIC was 0.78 µg/mL (≈ 1.79 µM).
`O=C(O)c1cn(-c2ccc(F)cc2F)c2nc(N3C[C@@H]4C[C@H]3CN4)c(F)cc2c1=O` yielded an MIC of 0.39 µg/mL (≈ 0.937 µM).

For another data set, the system named is Staphylococcus epidermidis. As to the kind of experiment: In vitro Minimum inhibitory concentration against Staphylococcus epidermidis 3519. It counts as functional.
Conditions: not given
As for `N[C@H]1C[C@@H](CO)N(c2cc3c(cc2F)c(=O)c(C(=O)O)cn3-c2ccc(F)cc2F)C1`, the MIC came out at 12.5 µg/mL (≈ 28.8 µM).
On to `N[C@H]1CC(CF)N(c2nc3c(cc2F)c(=O)c(C(=O)O)cn3-c2ccc(F)cc2F)C1` (stereo not given in full), for which the MIC turned out to be 0.2 µg/mL (≈ 0.458 µM).
`O=C(O)c1cn(-c2ccc(F)cc2F)c2nc(N3C[C@@H]4C[C@H]3CN4)c(F)cc2c1=O` yielded an MIC of 0.39 µg/mL (≈ 0.937 µM).

The next data set has as its system Streptococcus agalactiae. Description: In vitro Minimum inhibitory concentration against Streptococcus agalactiae CMX 508. It counts as functional.
Conditions: not given
As to `N[C@H]1C[C@@H](CO)N(c2cc3c(cc2F)c(=O)c(C(=O)O)cn3-c2ccc(F)cc2F)C1`, the MIC is 12.5 µg/mL (≈ 28.8 µM).
On the same count and under the same terms, then `N[C@H]1CC(CF)N(c2nc3c(cc2F)c(=O)c(C(=O)O)cn3-c2ccc(F)cc2F)C1` (stereo not given in full), with 0.39 µg/mL (≈ 0.894 µM); and `O=C(O)c1cn(-c2ccc(F)cc2F)c2nc(N3C[C@@H]4C[C@H]3CN4)c(F)cc2c1=O`, with 0.78 µg/mL (≈ 1.87 µM).

A further data set relates to Staphylococcus aureus. As to the kind of experiment: In vitro Minimum inhibitory concentration against Staphylococcus aureus 45. It counts as functional.
Conditions: not given
The compound `N[C@H]1C[C@@H](CO)N(c2cc3c(cc2F)c(=O)c(C(=O)O)cn3-c2ccc(F)cc2F)C1` gave an MIC of 12.5 µg/mL (≈ 28.8 µM).
`N[C@H]1CC(CF)N(c2nc3c(cc2F)c(=O)c(C(=O)O)cn3-c2ccc(F)cc2F)C1` (stereo not given in full) yielded a minimum inhibitory concentration (MIC) of 0.1 µg/mL (≈ 0.229 µM).
Regarding `O=C(O)c1cn(-c2ccc(F)cc2F)c2nc(N3C[C@@H]4C[C@H]3CN4)c(F)cc2c1=O`, the MIC amounted to 0.78 µg/mL (≈ 1.87 µM).

The next data set deals with Staphylococcus aureus. Description: In vitro Minimum inhibitory concentration against Staphylococcus aureus A5177. In kind it is functional.
Conditions: not given
As for `N[C@H]1C[C@@H](CO)N(c2cc3c(cc2F)c(=O)c(C(=O)O)cn3-c2ccc(F)cc2F)C1`, the MIC was 6.2 µg/mL (≈ 14.3 µM).
In the case of `N[C@H]1CC(CF)N(c2nc3c(cc2F)c(=O)c(C(=O)O)cn3-c2ccc(F)cc2F)C1` (stereo not given in full), inhibition of growth (MIC) required 0.1 µg/mL (≈ 0.229 µM).
`O=C(O)c1cn(-c2ccc(F)cc2F)c2nc(N3C[C@@H]4C[C@H]3CN4)c(F)cc2c1=O` returned an MIC of 0.39 µg/mL (≈ 0.937 µM).

A further data set has as its system Staphylococcus aureus. Description: In vitro Minimum inhibitory concentration against Staphylococcus aureus ATCC 6538P. It counts as functional.
Conditions: not given
`N[C@H]1C[C@@H](CO)N(c2cc3c(cc2F)c(=O)c(C(=O)O)cn3-c2ccc(F)cc2F)C1`: 1.56 µg/mL (≈ 3.6 µM) was the least that counted as inhibitory (MIC).
`N[C@H]1CC(CF)N(c2nc3c(cc2F)c(=O)c(C(=O)O)cn3-c2ccc(F)cc2F)C1` (stereo not given in full): the MIC was determined as 0.05 µg/mL (≈ 0.115 µM).
`O=C(O)c1cn(-c2ccc(F)cc2F)c2nc(N3C[C@@H]4C[C@H]3CN4)c(F)cc2c1=O` came in with a minimum inhibitory concentration (MIC) of 0.1 µg/mL (≈ 0.24 µM).

The subject of the next data set is Streptococcus equinus. As to the kind of experiment: In vitro Minimum inhibitory concentration against Streptococcus bovis A5169. In kind it is functional.
Conditions: not given
With `N[C@H]1C[C@@H](CO)N(c2cc3c(cc2F)c(=O)c(C(=O)O)cn3-c2ccc(F)cc2F)C1`, the MIC is 50 µg/mL (≈ 115 µM).
For `N[C@H]1CC(CF)N(c2nc3c(cc2F)c(=O)c(C(=O)O)cn3-c2ccc(F)cc2F)C1` (stereo not given in full), 0.78 µg/mL (≈ 1.79 µM) was the least that counted as inhibitory (MIC).
Compound `O=C(O)c1cn(-c2ccc(F)cc2F)c2nc(N3C[C@@H]4C[C@H]3CN4)c(F)cc2c1=O` showed an MIC of 1.56 µg/mL (≈ 3.75 µM).

Another data set deals with Enterococcus faecium. As to the kind of experiment: In vitro Minimum inhibitory concentration against Streptococcus faecium ATCC 8043. It counts as functional.
Conditions: not given
As for `N[C@H]1C[C@@H](CO)N(c2cc3c(cc2F)c(=O)c(C(=O)O)cn3-c2ccc(F)cc2F)C1`, the MIC worked out at 25 µg/mL (≈ 57.7 µM).
The compound `N[C@H]1CC(CF)N(c2nc3c(cc2F)c(=O)c(C(=O)O)cn3-c2ccc(F)cc2F)C1` (stereo not given in full) registered a minimal inhibitory concentration (MIC) of 0.2 µg/mL (≈ 0.458 µM).
In the case of `O=C(O)c1cn(-c2ccc(F)cc2F)c2nc(N3C[C@@H]4C[C@H]3CN4)c(F)cc2c1=O`, the MIC amounted to 0.39 µg/mL (≈ 0.937 µM).

The next data set relates to Streptococcus pyogenes. As to the kind of experiment: In vitro Minimum inhibitory concentration against Streptococcus pyogenes 930. It counts as functional.
Conditions: not given
In turn, `N[C@H]1C[C@@H](CO)N(c2cc3c(cc2F)c(=O)c(C(=O)O)cn3-c2ccc(F)cc2F)C1` had an MIC of 25 µg/mL (≈ 57.7 µM).
The same measure, in the same setting: then `N[C@H]1CC(CF)N(c2nc3c(cc2F)c(=O)c(C(=O)O)cn3-c2ccc(F)cc2F)C1` (stereo not given in full), with 0.2 µg/mL (≈ 0.458 µM).
For `O=C(O)c1cn(-c2ccc(F)cc2F)c2nc(N3C[C@@H]4C[C@H]3CN4)c(F)cc2c1=O`, the MIC came to 0.78 µg/mL (≈ 1.87 µM).

Test system in a further data set: not listed separately
As to the kind of experiment: Compound was evaluated for the solubility in Ringer's buffer solution. To be noted: Ringer's buffer solution; read-out: Solubility. In kind it is ADME.
As to `N[C@H]1C[C@@H](CO)N(c2cc3c(cc2F)c(=O)c(C(=O)O)cn3-c2ccc(F)cc2F)C1`, the solubility turned out to be 60 µg/mL (≈ 138 µM).

The subject of another data set is Staphylococcus aureus. Description: In vitro Minimum inhibitory concentration against Staphylococcus aureus CMX 686B.
Conditions: not given
In kind it is functional.
With `N[C@H]1C[C@@H](CO)N(c2cc3c(cc2F)c(=O)c(C(=O)O)cn3-c2ccc(F)cc2F)C1`, the lowest concentration to inhibit growth (MIC) was 6.2 µg/mL (≈ 14.3 µM).
As for `N[C@H]1CC(CF)N(c2nc3c(cc2F)c(=O)c(C(=O)O)cn3-c2ccc(F)cc2F)C1` (stereo not given in full), it took 0.05 µg/mL (≈ 0.115 µM) to inhibit growth (MIC).
Same read-out and setting: the value for `O=C(O)c1cn(-c2ccc(F)cc2F)c2nc(N3C[C@@H]4C[C@H]3CN4)c(F)cc2c1=O` was 0.2 µg/mL (≈ 0.48 µM).
